Experimental data from US20050196751A1, “Adenoviral vector-mediated delivery of modified steroid hormone receptors and related products and methods” (priority 1998, published 2005).

Tested on: C57BL/6 mice
Experiment: Serum hGH in adenoviral infected mice after RU486 (radio-immunoassay)
Type: in vivo, mouse
Experimental: RU486 (250 μg/kg) was administered every second day after infection for a period of two weeks as indicated by arrows. Mice were bled at different time points and serum hGH was analyzed by radio-immunoassay. Mice 1 and 2 received intraperitoneal injections (IP) of RU486; Mouse 3 (−RU486) received sesame oil. hGH serum levels are shown as μg/ml.
Mice infected for two weeks with the regulatable adenoviral construct hGHGLp65 were induced with […] RU486 as indicated by an arrow. 3, 6, 12, 24, 48, 72, 120 and 192 hours after RU486 administration blood was drawn from the mice, and hGH was measured in the serum by a radio-immunoassay. hGH serum levels of individual mice are shown in μg/ml.
Mice infected with hGH-GLp65 or hGH-H-GLp65 adenoviral vectors were induced 3 times with 250 μg/kg RU486 over a time period of 50 Days. hGH was measured prior to, 12 hours after, and 7 days after RU486 administration. […] Serum levels of hGH are shown in μg/ml.
hGH analysis in adenoviral infected mice. […] Serum hGH levels were detected using a radio-immunoassay. […]
To investigate the kinetics of the regulatory system, mice received a single RU486 administration two weeks after the initial infection and serum hGH levels were measured at different time intervals. […]

Which “doses of RU486 needed for induction” value (induction of transgene in the regulatory system) does the source give for `CC#C[C@]1(O)CC[C@H]2[C@@H]3CCC4=CC(=O)CCC4=C3[C@@H](c3ccc(N(C)C)cc3)C[C@@]21C` [RU486, mifepristone] here?
Its value is 0.1 to 0.5 mg/kg.

And the “hGH induction with oral versus I.P. RU486” value (oral RU486 administration compared with intraperitoneal)?
The value was “comparable”.
